From patent US20120232127A1, “REGULATION OF NEUROTRANSMITTER RELEASE THROUGH ANION CHANNELS” (KOREA INSTITUTE OF SCIENCE AND TECHNOLOGY, priority 2008, published 2012)
Entries after “also recorded” stand apart in the source; their conditions may differ. Blank lines part the entries; values can stand above or below the compound they belong to.

Key:
[1] = system: Ca2+-activated anion channels (CAACs); assay: Gramicidin-D perforated patch clamp of TFLLR-induced inward current in cultured astrocytes; type: cell-based, mouse
Method: (§1) The External solution was comprised of (in mM) 150 NaCl, 10 HEPES, 3 KCl, 2 CaCl2, 2 MgCl2, 5.5 glucose, at pH 7.3 (˜320 mOsm). For voltage clamp recordings, the internal solution contained 25 μg/ml gramicidin D and (in mM) 75 Cs2SO4, 10 NaCl, 0.1 CaCl2, and 10 HEPES, at pH 7.1 (˜310 mOsm). For current clamp recordings, the internal solution contained 25 μg/ml gramicidin D and (in mM) 75 K2SO4, 10 KCl, 0.1 CaCl2, and 10 HEPES, at pH 7.1 (˜310 mOsm). Pipette resistances ranged from 5 to 8 MΩ. For perforated patch clamp, it took 20 to 30 min to achieve acceptable perforation, with final series resistances ranging from 15 to 40 MΩ.
(§2) To test if activation of PAR1 by its specific agonist (e.g., TFLLR) causes any change in membrane conductance that might contribute to glutamate release from astrocytes, the whole cell currents and intracellular Ca^2+ responses in cultured astrocytes under gramicidin-D perforated patch configuration were simultaneously recorded (FIG. 1a). This technique minimized dialysis of intracellular ions.

[2] = system: intracellular Ca2+ in cultured astrocytes; assay: Ca2+ imaging of TFLLR-induced [Ca2+]i transient in cultured astrocytes; type: cell-based, mouse
Method: as §1, §2

[3] = molecular target: T1, Ca2+-activated anion channels (CAACs) (Mus musculus, UniProt O88870, R255K); assay: Gramicidin-D perforated patch clamp of TFLLR-induced inward current in cultured astrocytes; type: cell-based; conditions: for block of TFLLR-induced current: 100 μM blocker, cultured astrocytes; for block of the current by CAACs: astrocytes
T1 construct: endogenous in cells; host or cells: cultured mouse cortical astrocytes
T1 sequence (O88870 1-551 R255K): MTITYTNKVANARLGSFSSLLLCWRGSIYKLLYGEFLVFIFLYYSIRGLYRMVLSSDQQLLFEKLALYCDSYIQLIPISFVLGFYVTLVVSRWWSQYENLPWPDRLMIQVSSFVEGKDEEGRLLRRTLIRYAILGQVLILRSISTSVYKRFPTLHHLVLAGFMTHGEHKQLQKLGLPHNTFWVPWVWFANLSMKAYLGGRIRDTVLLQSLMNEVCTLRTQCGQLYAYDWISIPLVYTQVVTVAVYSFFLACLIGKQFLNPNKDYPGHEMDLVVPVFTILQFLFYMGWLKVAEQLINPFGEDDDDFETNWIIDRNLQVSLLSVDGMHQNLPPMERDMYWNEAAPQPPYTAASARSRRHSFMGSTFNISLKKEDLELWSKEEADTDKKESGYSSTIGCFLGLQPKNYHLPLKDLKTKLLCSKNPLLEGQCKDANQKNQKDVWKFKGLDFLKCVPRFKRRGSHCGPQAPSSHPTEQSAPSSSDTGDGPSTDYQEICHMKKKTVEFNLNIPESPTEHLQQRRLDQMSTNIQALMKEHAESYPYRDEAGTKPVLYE
Method: as §1, §2

[4] = system: glutamate release from cultured astrocytes; assay: TFLLR-evoked efflux of radiotracer from [3H]-glutamate-loaded cultures; type: cell-based
NMDA receptor (NMDAR) = assay: Voltage clamp of NMDAR-mediated mEPSC decay and NMDAR-mediated current
[5] = molecular target: T2, astrocytic CAAC / mBest1 channel (glutamate release) (Mus musculus, UniProt O88870, R255K); assay: Sniffer patch: astrocyte to GluR1 (L497Y)-expressing HEK293T cell pairs, TFLLR-induced glutamate release; type: cell-based; conditions: sniffer patch, cultured astrocytes as glutamate source
T2 construct: endogenous in cells; host or cells: cultured mouse cortical astrocytes
T2 sequence (O88870 1-551 R255K): T1 sequence (O88870 1-551 R255K)
Method: The sniffer patch technique, which is used for determining whether or not one is permeable to glutamate, was performed as described in Lee, C. J. et al. Astrocytic control of synaptic NMDA receptors. J Physiol 581, 1057-81 (2007), which is hereby incorporated by reference for all purposes as if fully set forth herein.
2. In experiments using astrocyte-HEK293T cell pairs, the sniffer patch techniques used naïve, scrambled- or mBest1-specific shRNA expressing (with GFP) astrocytes as a glutamate source; and GluR1 (L497Y) expressing HEK293T cells (with DsRED) as a detector. After obtaining gigaohm sealing, GluR1 (L497Y)-expressing cell was firstly ruptured, and then counterpart astrocytes were pressure-applied with 500 uM of TFLLR to evoke an increase in astrocytic intracellular Ca^2+ and resulting glutamate release onto the adjacent HEK293T cells.
GluR1LY-expressing detector cells were patched with the pipette solution pH 7.3 containing 110 mM CsGluconate, 30 mM CsCl, 5 mM HEPES, 4 mM NaCl, 2 mM MgCl2, 5 mM EGTA, and 1 mM CaCl2. The percentage of GluR1 (L497Y)-mediated current to the full activation level was analyzed by dividing the current amplitude of GluR1 (L497Y) current obtained through sniffer patch measurement by that of fully activated GluR1 (L497Y) current in the same cells.
The glutamate release through astrocytic CAACs was examined by using “sniffer-patch” technique and recording real-time glutamate release from cultured astrocytes (FIG. 10a). Using this technique, the present inventors observed that TFLLR-induced astrocytic glutamate release into an adjacent HEK293T cells expressing the non-desensitizing AMPA receptor subunit GluR1 (L497Y) mutant evoked an inward current sensitive to AMPA receptor antagonists, which is interpreted to reflect release of glutamate. The effects of TFLLR on current responses in transfected HEK293T cells was blocked by the treatment of niflumic acid (% block by niflumic acid=66.6±5.7%, FIGS. 10d to 10f), which is consistent with the idea that astrocytic CAAC is permeable to glutamate.

[6] = system: evoked EPSPs in hippocampal slices; assay: Current clamp of evoked EPSPs, Schaffer collateral to CA1 pyramidal neuron synapse in hippocampal slices; conditions: 30 μM niflumic acid
Method: To assess whether CAAC-dependent glutamate release in astrocytes occurs and enhances synaptic potentials in vivo, a series of current clamp experiments were carried out to directly measure the effects of CAAC-dependent glutamate release on the evoked EPSPs (eEPSPs) of the Schaffer collateral to CA1 pyramidal neuron synapse in hippocampal slices. Under the similar recording conditions as previously described in ‘Lee, C. J. et al. Astrocytic control of synaptic NMDA receptors.

[7] = molecular target: T3, Ca2+-activated anion channels (CAACs) (Mus musculus, UniProt O88870); assay: Gramicidin-D perforated patch clamp of TFLLR-induced inward current in cultured astrocytes; type: cell-based; conditions: cultured astrocytes, voltage-independent block
T3 construct: endogenous in cells; host or cells: cultured mouse cortical astrocytes
T3 sequence (O88870 1-551 R255K): T1 sequence (O88870 1-551 R255K)
Method: as §1, §2

astrocytic CAACs = molecular target: T4, astrocytic CAACs (Mus musculus, UniProt O88870, R255K); assay: Whole-cell patch clamp, astrocytic CAAC current directly activated by 4.5 μM internal Ca2+; type: cell-based; conditions: internal solution with 4.5 μM Ca2+
T4 construct: endogenous in cells; host or cells: cultured mouse cortical astrocytes
T4 sequence (O88870 1-551 R255K): T1 sequence (O88870 1-551 R255K)
Method: Patch pipettes which have 3-6MΩ of resistance are filled with the standard intracellular solution. Current voltage curves were established by applying 100- or 200-ms-duration voltage ramps from −100 to +100 mV. […]. Data were acquired by an Axopatch 200A amplifier controlled by Clampex 9.0 via a Digidata 1322A data acquisition system (Molecular Devices). Experiments were conducted at room temperature (20˜24° C.). The standard pipette solution was comprised of (in mM) 146 CsCl, 2 MgCl2, 5 (Ca^2+)-EGTA, 8 HEPES, and 10 sucrose, at pH 7.3, adjusted with CsOH. The concentration of free [Ca^2+]i in the solution was determined (Kuruma, A. & Hartzell, H. C. Bimodal control of a Ca(^2+)-activated Cl(−) channel by difference Ca(^2+) signals. J Gen Physiol 115, 59-80 (2000), which is hereby incorporated by reference for all purposes as if fully set forth herein). The standard extracellular solution was comprised of (in mM) 140 NaCl, 5 KCl, 2 CaCl2, 1 MgCl2, 15 glucose, and 10 HEPES, with pH 7.3 as adjusted using NaOH.
Because CAACs can permeate large anions and could be directly activated by applying internal solutions with known Ca^2+ concentrations, it was tested whether astrocytic CAACs can permeate glutamate by directly applying internal solutions containing 4.5 μM of Ca^2+ at which level CAACs are maximally activated (FIG. 10).

[8] = system: CAACs expressed in Xenopus laevis oocytes; conditions: read-out: reported IC50 value for CAACs expressed in Xenopus laevis oocytes; cited from earlier work
[9] = BAPTA-AM, 50 μM preincubation for 30 min
[10] = U73122 2 μM, preincubation 10 min
[11] = thapsigargin 100 nM, preincubation 5 min
[12] = thapsigargin 100 nM, preincubation 5 min, listed as Thapsigargin

Compound: CC(=O)OCOC(=O)CN(CC(=O)OCOC(C)=O)c1ccccc1OCCOc1ccccc1N(CC(=O)OCOC(C)=O)CC(=O)OCOC(C)=O [BAPTA-AM]
effect on TFLLR-induced current [1, 9]: eliminated; also recorded: inhibition
effect on TFLLR-induced [Ca2+]i transient [2, 9]: eliminated; also recorded: inhibition

block of TFLLR-induced current [3]: blocked
Compound: O=C(O)c1cc([N+](=O)[O-])ccc1NCCCc1ccccc1 [NPPB, 5-nitro-2(3-phenylpropylamino)-benzoic acid]

Compound: COc1ccc2c(c1)CC[C@@H]1[C@@H]2CC[C@]2(C)[C@@H](NCCCCCCN3C(=O)C=CC3=O)CC[C@@H]12 [U73122]
effect on TFLLR-induced inward current [1, 10]: reduced; also recorded: inhibition
effect on TFLLR-induced [Ca2+]i increase [2, 10]: reduced; also recorded: inhibition

block of the current by CAACs ([3]; 100 μM): did not block
Compound: CC1(C)[C@@H](OC(=O)CCC(=O)O)CC[C@]2(C)[C@H]3C(=O)C=C4[C@@H]5C[C@@](C)(C(=O)O)CC[C@]5(C)CC[C@@]4(C)[C@]3(C)CC[C@@H]12 [carbenoxolone]

block of TFLLR-induced current [3]: blocked
Compound: O=C(O)c1ccccc1Nc1cccc(C(F)(F)F)c1 [flufenamic acid]
inhibition of TFLLR-evoked efflux of radiotracer from [3H]-glutamate-loaded cultures [4]: 57%

Compound: O=C(O)c1cccnc1Nc1cccc(C(F)(F)F)c1 [niflumic acid]
effect on NMDAR-mediated current amplitude (NMDA receptor (NMDAR)): minimally affected
TFLLR-induced prolongation of slow NMDAR-mediated component of mEPSC decay (NMDA receptor (NMDAR); voltage clamp): sensitive
% block of TFLLR effect on current responses in GluR1 (L497Y)-transfected HEK293T cells [5]: 66.6±5.7%
effect on TFLLR enhancement of eEPSP [6]: blocked; also recorded: not statistically significant
IC50 [7]: 9.8 µM
block of TFLLR-induced current [3]: blocked; also recorded: inhibited
block of TFLLR-induced current ([3]; listed as Niflumic acid): blocked
inhibition of TFLLR-evoked efflux of radiotracer from [3H]-glutamate-loaded cultures [4]: 69%
block of directly activated non-desensitizing CAAC current (astrocytic CAACs): readily blocked
IC50 [8]: 10.1 µM
effect on TFLLR-induced increases in intracellular Ca2+ ([2]; 100 μM niflumic acid, n=5): attenuated but did not completely block

Compound: C/C=C(/C)C(=O)O[C@H]1C(C)=C2[C@H]([C@@H]1OC(=O)CCCCCCC)[C@@](C)(OC(C)=O)C[C@H](OC(=O)CCC)[C@@]1(O)[C@H]2OC(=O)[C@@]1(C)O [thapsigargin]
effect on TFLLR-induced inward current [1, 11]: reduced
effect on TFLLR-induced inward current [1, 12]: inhibition
effect on TFLLR-induced [Ca2+]i increase [2, 11]: reduced
effect on TFLLR-induced [Ca2+]i increase [2, 12]: inhibition

Compound: chlorotoxin
block of the current by CAACs ([3]; 1 μM): did not block
